Experimental data from US12522596B2, “Compounds as GLP-1R agonists” (Terns Pharmaceuticals, Inc., priority 2021, dated 2026).

System: mice expressing wildtype (WT) mouse GLP-1R
Assay: Glucose tolerance in mice expressing wildtype mouse GLP-1R
Type: in vivo
Details: mice expressing WT mouse GLP-1R
Method: The glucose tolerance of mice expressing wildtype (WT) mouse GLP-1R was also evaluated after the administration of compound 2 using methods analogous to those described above. The glucose tolerance of mice expressing WT mouse GLP-1R was not affected by Compound 2, whereas the glucose tolerance of mice expressing human GLP-1R was improved by Compound 2 (FIGS. 9 and 10).

N#Cc1ccc(COc2cccc(C3CCN(Cc4nc5ccc(C(=O)O)cc5n4Cc4cncs4)CC3)n2)c(F)c1 [Compound 2]
glucose tolerance: not affected
